Data as given in patent publication US12370263B2, “Cyclic dinucleotide derivative based antibody-drug conjugates” (DAIICHI SANKYO COMPANY, LIMITED, priority 2018, dated 2025).

How the values were obtained:
CT26.WT-hHER2 cells = assay: Anti-Tumor Test (6); format: in vivo, BALB/c mouse; details: 1.2 μg (equivalent of the conjugate's CDN component) into the tail vein on Day 7, once; CT26.WT-hHER2 in BALB/c mice
Protocol: Each antibody-CDN conjugate was diluted with acetate buffer (10 mM Acetate Buffer, 5% Sorbitol, pH 5.5) (NACALAI TESQUE, INC.) for use. In administration of it, 200 μL was administered into the tail vein.
CT26.WT-hHER2 cells were suspended in physiological saline, 5.0×10^6 cells were subcutaneously transplanted into the right axilla of each BALB/c mouse (Day 0), and 7 days thereafter the mice were randomly grouped. Each specimen for administration was administered into the tail vein on Day 7, once in total. A group with administration of acetate buffer was set as a group with a vehicle. The number of mice in each group was five.

Human STING = Human STING (Homo sapiens, UniProt Q86WV6, G230A/H232R/R293Q/R71H); assay: Reporter gene assay, human STING agonist activity, THP1-Dual cells (HAQ-mutated), IRF pathway; details: THP1-Dual cells IRF EC50, THP1-Dual cells (HAQ-mutated), 24 hours; 100% = maximum count with ML-RR-CDA·2Na+
Sequence of Human STING (Q86WV6 whole entry R71H/G230A/H232R/R293Q): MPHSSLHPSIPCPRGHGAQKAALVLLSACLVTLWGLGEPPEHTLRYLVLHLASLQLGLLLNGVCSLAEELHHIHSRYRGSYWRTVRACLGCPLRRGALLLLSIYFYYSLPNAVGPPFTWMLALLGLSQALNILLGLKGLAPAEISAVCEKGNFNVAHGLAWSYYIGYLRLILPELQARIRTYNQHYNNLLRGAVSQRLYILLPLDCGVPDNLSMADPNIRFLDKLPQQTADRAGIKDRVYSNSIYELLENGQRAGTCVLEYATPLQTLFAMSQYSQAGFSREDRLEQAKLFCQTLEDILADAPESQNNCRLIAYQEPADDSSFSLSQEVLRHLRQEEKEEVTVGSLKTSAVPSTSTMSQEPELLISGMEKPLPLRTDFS
Protocol: Human STING agonist activity was evaluated by using THP1-Dual™ cells (HAQ-mutated) (InvivoGen, CA, US), with which the activation of the pathway of interferon regulatory factor-3 (IRF3), which is present in the downstream of the STING pathway, can be confirmed.
Assay was performed as follows. First, a test compound diluted with PBS was aliquoted into a transparent 96-well plate (Corning Incorporated, NY, US) at 20 μL/well. Subsequently, reporter cells suspended in assay buffer (an RPMI1640 medium or DMEM medium containing 10% bovine serum albumin) were added at 180 μL/well (1×10^5 cells/well) to initiate stimulation. After the cells were cultured in an environment at 37° C. and 5% CO2 for 24 hours, the resultant was centrifuged to collect the supernatant. To a white 384-well plate, 6 μL of the supernatant collected was added, and 15 μL of QUANTI-Luc (InvivoGen) solution was added thereto. After the resultant was well mixed together, emission was measured by using a plate reader (PerkinElmer, Inc., MA, US).

CT26.WT cells = assay: Anti-Tumor Test (1), intratumoral administration; format: in vivo, BALB/c mouse; details: 10 μg intratumorally on Day 7, 9, and 11; CT26.WT in BALB/c mice; FIGS. 7a and 7b
Protocol: Mice: Before use for experiment, 5-week-old female BALB/c mice (BALB/cAnNCrlCrlj) (Charles River Laboratories Japan, Inc.) were habituated under SPF conditions for 4 days or longer.
Measurement, calculation formula: In all the studies, the major axis and minor axis of a tumor were measured twice or three times per week by using an electronic digital caliper (CD15-CX, Mitutoyo Corporation) to calculate tumor volume (mm^3). The calculation formula is as follows. Tumor volume (mm^3)=0.5×Major axis (mm)×[Minor axis (mm)]^2
Each test compound was diluted with physiological saline (Otsuka Pharmaceutical Factory, Inc.) for use. In administration of it, 50 μL was intratumorally administered.
Cells of the mouse colorectal cancer cell line CT26.WT (CRL2638) purchased from the American Type Culture Collection were used. CT26.WT cells were suspended in physiological saline, 1.0×10^6 cells were subcutaneously transplanted into the right axilla of each BALB/c mouse (Day 0), and 7 days thereafter the mice were randomly grouped. Each test compound in a dose of 10 μg was intratumorally administered on Day 7, 9, and 11, three times in total. A group with administration of physiological saline was set as a group with a vehicle. The number of mice in each group was five or six.

[1] = target: T1, His-Avi-TEV-mSTING (138-341) mouse wild-type protein (Mus musculus, UniProt Q3TBT3); assay: Protein thermal shift assay, STING C-terminal binding domain protein; details: test compound final concentration 0.5 mM
T1 construct: made in house; host or cells: E. coli Rosetta 2 (DE3), co-expressed with BirA (1-321)
T1 sequence (Q3TBT3 with tags, fused parts or gaps limits assumed): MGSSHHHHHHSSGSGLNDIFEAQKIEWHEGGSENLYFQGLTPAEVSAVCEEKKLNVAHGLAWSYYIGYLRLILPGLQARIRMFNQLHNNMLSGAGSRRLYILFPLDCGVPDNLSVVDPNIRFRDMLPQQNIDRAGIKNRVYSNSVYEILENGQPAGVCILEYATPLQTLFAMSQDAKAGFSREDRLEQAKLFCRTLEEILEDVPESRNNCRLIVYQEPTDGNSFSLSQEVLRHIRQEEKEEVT
Protocol: Each of these expression strains was added to a TB medium containing 100 μg/mL ampicillin, 50 μg/mL streptomycin, and 30 μg/mL kanamycin, cultured at 37° C., then exposed to 100 μM IPTG for inducible expression, and further cultured at 16° C.
The culture solution was centrifuged, and the resulting bacterial cells were suspended in 50 mM HEPES pH 8.0, 500 mM NaCl, 20 mM imidazole, 1 mM DTT, 5% (w/v) glycerol, Complete EDTA free, and then subjected to freeze-thawing. After addition of Lysozyme and DNase I, proteins were extracted by ultrasonic disintegration, and centrifugation was performed and the resulting supernatant was collected. The supernatant obtained was purified by using an AKTA express chromatography system (GE Healthcare, IL, US) with a HisTrap FF column (GE Healthcare), and eluted with buffer (20 mM HEPES pH 7.5, 120 mM NaCl, 20% Glycerol, 0.8 mM DTT) through a Superdex 200 16/60 column (GE Healthcare). […] The protein concentrations were measured by using a NanoDrop2000 (Thermo Fisher Scientific, MA, US), and the proteins were cryopreserved at −80° C. until use.
The binding ability of each compound to the STING C-terminal binding domain proteins was evaluated by protein thermal shift assay, which uses the elevation of thermal denaturation temperature of protein as an index.
Specifically, 3 μL of a test compound (final concentration: 0.5 mM), 3 μL of SYPRO Orange Protein Gel Stain (Thermo Fisher Scientific) (final concentration: 20-fold), and 6 μL of a STING protein were mixed with use of assay buffer (20 mM Tris-HCl pH 7.5, 120 mM NaCl) in a 384-well real-time PCR plate, and mixed together with a plate shaker. With a real-time PCR system (Thermo Fisher Scientific), the temperature was increased from 25° C. to 95° C. at a rate of 0.03° C./sec, and the thermal denaturation temperature of the protein was measured by using fluorescence emitted from SYPRO Orange as an index. From the measurement acquired, Tm (the midpoint of the unfolding transition) (° C.) was determined as a temperature at which the increase rate of fluorescence intensity was maximized by using the analysis software Protein Thermal Shift software (Thermo Fisher Scientific). The Tm value for a well with no compound was subtracted from the Tm value for each test compound to calculate the Tm shift caused by the compound as ΔTm (° C.).

[2] = target: T2, HisAviTEV-hSTING (139-342) human REF-mutated protein (Homo sapiens, UniProt Q86WV6); assay: as above; details: test compound final concentration 0.5 mM
T2 construct: made in house; host or cells: E. coli Rosetta 2 (DE3), co-expressed with BirA (1-321)
T2 sequence (Q86WV6 with tags, fused parts or gaps, change not shown): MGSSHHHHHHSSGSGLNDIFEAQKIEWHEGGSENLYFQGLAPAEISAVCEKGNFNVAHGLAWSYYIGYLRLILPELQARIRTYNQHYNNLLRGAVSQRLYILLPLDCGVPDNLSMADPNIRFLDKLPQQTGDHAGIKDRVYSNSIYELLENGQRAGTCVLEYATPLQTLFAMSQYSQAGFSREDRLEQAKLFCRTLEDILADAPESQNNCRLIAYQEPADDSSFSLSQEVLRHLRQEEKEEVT

[3] = target: T3, HisAviTEV-hSTING (139-342) human AQ-mutated protein (Homo sapiens, UniProt Q86WV6, G230A/H232R/R293Q); assay: as above; details: test compound final concentration 0.5 mM
T3 construct: made in house; host or cells: E. coli Rosetta 2 (DE3), co-expressed with BirA (1-321)
T3 sequence (Q86WV6 with tags, fused parts or gaps G230A/H232R/R293Q): as the sequence (Q86WV6 with tags, fused parts or gaps, change not shown) above, with G131A, H133R, R194Q counted along it

[4] = target: T4, HisAviTEV-hSTING (139-342) human wild-type protein (Homo sapiens, UniProt Q86WV6, H232R); assay: as above; details: test compound final concentration 0.5 mM
T4 construct: made in house; host or cells: E. coli Rosetta 2 (DE3), co-expressed with BirA (1-321)
T4 sequence (Q86WV6 with tags, fused parts or gaps H232R): as the sequence (Q86WV6 with tags, fused parts or gaps, change not shown) above, with H133R counted along it

| EC50 (Human STING) [µM] | ΔTm at 500 µM [1] [°C] | ΔTm at 500 µM [2] [°C] | ΔTm at 500 µM [3] [°C] | ΔTm at 500 µM [4] [°C] | SMILES | tumor growth (tumor volume) (CT26.WT-hHER2 cells) | tumor growth (tumor volume) (CT26.WT cells) |
| --- | --- | --- | --- | --- | --- | --- | --- |
| 6.6 | – | – | – | – | NCCNc1nc(N)c2ncn([C@@H]3O[C@@H]4COP(=O)(S)O[C@H]5[C@@H](O)[C@H](n6cc7c8c(ncnc86)NCCC7)O[C@@H]5COP(=O)(S)O[C@@H]3[C@@H]4O)c2n1 (single isomer, unassigned) [8b] | not suppressed | significantly suppressed |
| 0.6 | 15.7 | 5.7 | 14.8 | 10.6 | O=c1c2ncn([C@@H]3O[C@@H]4COP(=O)(S)O[C@H]5[C@@H](O)[C@H](n6cc7c8c(ncnc86)NCCC7)O[C@@H]5COP(=O)(S)O[C@@H]3[C@@H]4O)c2ncn1CCO (single isomer, unassigned) [6a] | – | significantly suppressed |
